Test results taken from patent publication US12091411B2, “IRAK degraders and uses thereof” (Kymera Therapeutics, Inc., priority 2022, dated 2024).
Where two headings read alike, the source gives them in different places.

Target: T1, IRAK4 (Homo sapiens, UniProt Q9NWZ3)
T1 construct: Degradation of IRAK4 in OCI-LY10 was quantitatively measured using Meso Scale Discovery technology; endogenous in cells; host or cells: OCI-LY10
T1 sequence (Q9NWZ3 1-460): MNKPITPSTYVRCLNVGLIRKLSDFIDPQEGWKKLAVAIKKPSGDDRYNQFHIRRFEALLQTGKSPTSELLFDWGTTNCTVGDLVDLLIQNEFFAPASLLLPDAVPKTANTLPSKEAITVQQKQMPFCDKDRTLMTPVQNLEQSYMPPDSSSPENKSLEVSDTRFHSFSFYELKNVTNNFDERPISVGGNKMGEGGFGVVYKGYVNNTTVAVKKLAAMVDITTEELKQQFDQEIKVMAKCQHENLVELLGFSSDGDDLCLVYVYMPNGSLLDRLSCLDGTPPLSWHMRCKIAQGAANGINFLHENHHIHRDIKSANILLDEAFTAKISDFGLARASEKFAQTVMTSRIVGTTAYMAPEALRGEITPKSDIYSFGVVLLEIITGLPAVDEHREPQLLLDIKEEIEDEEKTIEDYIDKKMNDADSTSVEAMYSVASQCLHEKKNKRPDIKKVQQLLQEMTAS
Test: IRAK4 MSD Degradation in OCI-LY10
Assay type: cell-based
Settings: OCI-LY10 cells, MSD
Procedure, shortened: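 DC50, from a three-parameter logistic fit and reported as letter bins A (<0.01 μM), B, C, D (>0.2 μM or not tested), reflects IRAK4 loss measured by MSD electrochemiluminescence in OCI-LY10 lysates. Treatment: 8 doses, 1:3 steps, top 1 to 10 μM, 4 to 24 h, 37 °C.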

[1] = 4 hrs incubation, read-out: IRAK4 degradation in OCI-LY10 at 4 hrs: DC50
[2] = 24 hrs incubation, read-out: IRAK4 degradation in OCI-LY10 at 24 hrs: DC50

Row | Structure (SMILES) | DC50 [1] [nM] | DC50 [2] [nM]
1 | Cn1c(=O)n(C2CCC(=O)NC2=O)c2cccc([C@H]3CCN(C[C@H]4CC[C@H](n5cc6cc(NC(=O)c7cccc(C(F)F)n7)ccc6n5)CC4)C[C@@H]3F)c21 (stereo partly drawn) [I-630] | > 200 | > 200
2 | C[C@@H]1C[C@@H](OCC#Cc2cccc3c2n(C)c(=O)n3C2CCC(=O)NC2=O)CCN1C[C@H]1CC[C@H](n2cc(NC(=O)c3cnn4ccc(N5C[C@H]6C[C@@H]5CO6)nc34)c(C(F)F)n2)CC1 (stereo partly drawn) [I-33] | < 10 | > 200
3 | COc1ccc2c(c1C#CCO[C@@H]1CCN(C[C@H]3CC[C@H](n4cc(NC(=O)c5cnn6ccc(N7C[C@H]8C[C@@H]7CO8)nc56)c(C(F)F)n4)CC3)C[C@H]1C)n(C)c(=O)n2C1CCC(=O)NC1=O (stereo partly drawn) [I-64] | < 10 | > 200
4 | Cn1c(=O)n(C2CCC(=O)NC2=O)c2cccc(C#CCCC3CCN(CC4CCC(n5cc(NC(=O)c6cnn7ccc(C8C[C@H]9C[C@@H]8CO9)nc67)c(C(F)F)n5)CC4)CC3)c21 (stereo partly drawn) [I-160] | < 10 | < 10
5 | COc1cc2nn([C@H]3CC[C@H](CN4CCC5(CC4)CCN(c4c(C)ccc6c4n(C)c(=O)n6C4CCC(=O)NC4=O)CC5)CC3)cc2cc1NC(=O)c1cncc(C#N)c1 (stereo partly drawn) [I-84] | > 200 | > 200
6 | Cn1c(=O)n(C2CCC(=O)NC2=O)c2cccc(C#CCOC3CCN(C[C@H]4CC[C@H](c5ccc(C(F)F)c(NC(=O)c6cnn7ccc(N8C[C@H]9C[C@@H]8CO9)nc67)c5)CC4)CC3)c21 (stereo partly drawn) [I-175] | > 200 | > 200
7 | Cn1c(=O)n(C2CCC(=O)NC2=O)c2cccc(C3CCN(C[C@H]4CC[C@H](n5cc6cc(NC(=O)c7cccc(C(F)F)n7)c(C(C)(C)O)cc6n5)CC4)C[C@@H]3F)c21 (stereo partly drawn) [I-652] | > 200 | > 200
8 | Cn1c(=O)n(C2CCC(=O)NC2=O)c2cccc(C#CCN3CC4CCC(C3)N4C[C@H]3CC[C@H](n4cc(NC(=O)c5cnn6ccc(N7C[C@H]8C[C@@H]7CO8)nc56)c(C(F)F)n4)CC3)c21 (stereo partly drawn) [I-342] | < 10 | > 200
9 | Cn1c(=O)n(C2CCC(=O)NC2=O)c2cccc(N3CCN(C(=O)C[C@]4(O)CC[C@@H](n5cc6cc(NC(=O)c7cccc(C(F)(F)F)n7)ncc6n5)CC4)CC3)c21 (stereo partly drawn) [I-764] | > 200 | > 200
10 | Cn1c(=O)n(C2CCC(=O)NC2=O)c2cccc(C#CCOC3CCN(C[C@H]4CC[C@H](n5cc(NC(=O)c6cnn7ccc(N8CC9COCC9C8)nc67)c(C(F)F)n5)CC4)CC3)c21 (stereo partly drawn) [I-332] | < 10 | > 200
11 | CC([C@H]1CC[C@H](n2cc(NC(=O)c3cnn4ccc(C5CC6C[C@@H]5CO6)nc34)c(C(F)F)n2)CC1)N1CCC(OCC#Cc2cccc3c2n(C)c(=O)n3C2CCC(=O)NC2=O)CC1 (stereo partly drawn) [I-192] | > 200 | > 200
12 | Cn1c(=O)n(C2CCC(=O)NC2=O)c2cccc(C#CCO[C@H]3CCN(C[C@H]4CC[C@H](n5cc(NC(=O)c6cnn7ccc(N8CCS(=O)(=O)CC8)nc67)c(C(F)F)n5)CC4)C[C@H]3F)c21 (stereo partly drawn) [I-592] | > 200 | > 200
13 | COc1ccc2c(c1C#CCN1CCN(C[C@H]3CC[C@H](n4cc(NC(=O)c5cnn6ccc(N7C[C@H]8C[C@@H]7CO8)nc56)c(C(F)F)n4)CC3)CC1)n(C)c(=O)n2C1CCC(=O)NC1=O (stereo partly drawn) [I-39] | < 10 | > 200
14 | CO[C@@H]1CN(c2cccc3c2n(C)c(=O)n3C2CCC(=O)NC2=O)CC[C@H]1N(C)C[C@H]1CC[C@H](n2cc3cc(NC(=O)c4cccc(C(F)(F)F)n4)ccc3n2)CC1 (stereo partly drawn) [I-495] | > 200 | > 200
15 | Cn1c(=O)n(C2CCC(=O)NC2=O)c2cccc(C[C@@H]3CN(Cc4ccc(-n5cc(NC(=O)c6cnn7ccc(N8C[C@H]9C[C@@H]8CO9)nc67)c(C(F)F)n5)cc4)CCO3)c21 (stereo partly drawn) [I-394] | > 200 | > 200

Next, values leading:

Row | DC50 [1] [nM] | DC50 [2] [nM] | Structure (SMILES)
16 | > 200 | 10 to 100 | Cn1c(=O)n(C2CCC(=O)NC2=O)c2cccc(C#CCN3CCN(C[C@H]4CC[C@H](n5cc(NC(=O)c6cnn7ccc(N8CCCCC8(C)C)nc67)c(C(F)F)n5)CC4)CC3)c21 (stereo partly drawn) [I-230]
17 | > 200 | < 10 | Cn1c(=O)n(C2CCC(=O)NC2=O)c2cccc(N3CC(CO[C@H]4CCN(C[C@H]5CC[C@H](n6cc(NC(=O)c7cnn8ccc(N9C[C@H]%10CC9CO%10)nc78)c(C(F)F)n6)CC5)C[C@@H]4F)C3)c21 (stereo partly drawn) [I-587]
18 | > 200 | < 10 | CN(C[C@H]1CC[C@H](n2cc(NC(=O)c3cnn4ccc(N5CCOC6(CC6)C5)nc34)c(C(F)F)n2)CC1)C1CCN(c2cccc3c2n(C)c(=O)n3C2CCC(=O)NC2=O)CC1 (stereo partly drawn) [I-356]
19 | 10 to 100 | > 200 | Cn1c(=O)n(C2CCC(=O)NC2=O)c2cccc(C#CCN3CCN(C[C@H]4CC[C@H](n5cc(NC(=O)c6cnn7ccc(N8C[C@H]9OC[C@@H]8O9)nc67)c(C(F)F)n5)CC4)CC3)c21 (stereo partly drawn) [I-44]
20 | > 200 | < 10 | CO[C@]1(CN2CCN(C[C@H]3CC[C@H](n4cc(NC(=O)c5cnn6ccc(N7C[C@H]8C[C@@H]7CO8)nc56)c(C(F)F)n4)CC3)CC2)C[C@@H](c2cccc3c2n(C)c(=O)n3C2CCC(=O)NC2=O)C1 (stereo partly drawn) [I-729]
21 | < 10 | > 200 | CN(C)c1ccn2ncc(C(=O)Nc3cn([C@H]4CC[C@H](CN5CCN(CC#Cc6cccc7c6n(C)c(=O)n7C6CCC(=O)NC6=O)CC5)CC4)nc3C(F)F)c2n1 (stereo partly drawn) [I-101]
22 | > 200 | > 200 | CN(C[C@H]1CC[C@H](n2cc(NC(=O)c3cnn4ccc(N5CCC5)nc34)c(C(F)F)n2)CC1)C1CCN(c2cccc3c2n(C)c(=O)n3C2CCC(=O)NC2=O)CC1(F)F (stereo partly drawn) [I-504]
23 | 10 to 100 | > 200 | Cn1c(=O)n(C2CCC(=O)NC2=O)c2cccc(C#CCN3CCN(C[C@H]4CC[C@H](n5cc(NC(=O)c6cnn7ccc(N8CC9(CCCOC9)C8)nc67)c(C(F)F)n5)CC4)CC3)c21 (stereo partly drawn) [I-318]
24 | 10 to 100 | > 200 | Cn1c(=O)n(C2CCC(=O)NC2=O)c2cccc(N3CCN([C@H]4CC[C@H](n5cc(NC(=O)c6cnn7ccc(N8C[C@H]9C[C@@H]8CO9)nc67)c(C(F)F)n5)CC4)CC3)c21 (stereo partly drawn) [I-200]
25 | > 200 | 10 to 100 | Cn1c(=O)n(C2CCC(=O)NC2=O)c2cccc(C#CCN3CCN(C[C@H]4CC[C@H](n5cc(NC(=O)c6cnn7ccc(N8CC9(CCOCC9)C8)nc67)c(C(F)F)n5)CC4)CC3)c21 (stereo partly drawn) [I-316]
26 | > 200 | 10 to 100 | Cn1c(=O)n(C2CCC(=O)NC2=O)c2cccc(N3CCN(CC[C@H]4CC[C@H](n5cc(NC(=O)c6cnn7cccnc67)c(C(F)F)n5)CC4)CC3)c21 (stereo partly drawn) [I-237]
27 | > 200 | > 200 | CN(C[C@H]1CC[C@H](n2cc(NC(=O)c3cnn4ccc(N5CCCC5(C)C)nc34)c(C(F)F)n2)CC1)C1CCN(c2cccc3c2n(C)c(=O)n3C2CCC(=O)NC2=O)CC1(F)F (stereo partly drawn) [I-513]
28 | > 200 | 10 to 100 | CN(C[C@H]1CC[C@H](n2cc(NC(=O)c3cnn4ccc(N5C6CCC5COC6)nc34)c(C(F)F)n2)CC1)C1CCN(c2cccc3c2n(C)c(=O)n3C2CCC(=O)NC2=O)CC1(F)F (stereo partly drawn) [I-527]
29 | > 200 | > 200 | Cn1c(=O)n(C2CCC(=O)NC2=O)c2cccc(C#CCN3CCN(C[C@H]4CC[C@H](n5cc(NC(=O)c6cnn7ccc(N8CCOC(F)(F)C8)nc67)c(C(F)F)n5)CC4)CC3)c21 (stereo partly drawn) [I-324]
30 | > 200 | > 200 | CN(C[C@H]1CC[C@H](n2cc3cc(NC(=O)c4cccc(C(F)(F)F)n4)c(C(F)F)cc3n2)CC1)C1CCN(c2cccc3c2n(C)c(=O)n3C2CCC(=O)NC2=O)CC1(F)F (stereo partly drawn) [I-476]
